Results from patent US4072574A, “System for in vitro assay for mutagenicity and/or carcinogenicity of chemicals or other exogenous agents” (priority 1976, dated 1978).

Experiments:
AMV DNA polymerase [1] = test: Fidelity of in vitro DNA synthesis (error frequency) with AMV DNA polymerase copying synthetic polynucleotide templates; details: for effect on error frequency (in words): dTMP complementary, dCMP non-complementary
Excerpt: (§1) In this invention, the ability of carcinogens to decrease the fidelity of in vitro DNA synthesis will be used to screen for carcinogenic or mutagenic agents. The system uses synthetic polynucleotides of defined composition which may be copied in the test tubes with procaryotic, eucaryotic or viral DNA polymerases. The use of synthetic polynucleotides of defined composition allows the measurement of the simultaneous incorporation of the correct, complementary nucleotide and an incorrect, non-complementary nucleotide. The correct nucleotide is labeled with [α-^32 P] of low specific activity and the incorrect nucleotide is labeled with [^3 H] of high specific activity. Through this double labeled reaction it is possible to determine the simultaneous incorporation of both nucleotides and thus to determine an error frequency. The error frequency may be defined as the ratio of the incorrect/correct nucleotide incorporation. Agents which increase this error frequency may be scored as positive. […] Agents which score positive would be checked using different templates to underscore the positive results. In this system different polymerases will be used as well as different templates. One would expect that most carcinogens would change the fidelity of DNA synthesis with different polymerases as well as with different templates though this need not be the case.
(§2) Each assay will consist of a polymerase, a polynucleotide template that only contains one or two nucleotides, a complementary nucleotide and a non-complementary nucleotide as well as magnesium. Both of the nucleotides will be labeled by radioactive precursors and the ratio between the two is to be used for a measure of error frequency in the system. In instances where a template requires two complementary nucleotides, only one will be radioactively labeled.
(§3) Reactions (total volume 0.05 ml) which measured complementary nucleotide incorporation contained 50 mM Tris-HCL (pH 8.0), 20 mM KCl, 5 mM dithiothreitol, 5 mM MgCl2, 2μg BSA, […] [α-^32 P] -dTTP (60 dpm/pmole), 1μg poly (A).oligo (dT) (1:1.5 mass ratio), and 0.45 μg of AMV DNA polymerase. For simultaneous quantitation of complementary and non-complementary nucleotide incorporation each reaction was modified to contain 26μM [α-^32 P]dTTP (12 dpm/pmole) and 23μM [^3 H]-dCTP (50,000 dpm/pmole). […] Metals were added directly to the reaction mixture as aqueous solutions of chloride salts. All reactions were incubated for 60 min. at 37° C. Incorporation of radioactive nucleotides into an acid-insoluble and alkali-resistant product was determined by using the precipitation-solubilization procedure as described by Battula and Loeb. All experiments were performed in triplicate and the averages were determined.
(§4) In order to determine the effect of different metals on the accuracy of DNA replication, metal cations were added as chloride salts directly to the polymerase reaction. In these experiments, poly (A).oligo (dT) was the template-primer and the simultaneous incorporation of complementary nucleotide, [α-^32 P]-dTMP, and the non-complementery nucleotide, [^3 H]-dCMP, was determined.
(§5) The effect of metal salts on the fidelity of DNA synthesis was examined by testing each of the metal salts at a minimum of seven different concentrations.

[2] = as above; details: amv dna polymerase, poly [d(a-t)]
Excerpt: as §1, §2, §3, §4, §5

[3] = known status of the compound; cited from earlier work
AMV DNA polymerase [4] = test: Metal requirements for catalysis by AMV DNA polymerase; format: biochemical, avian myeloblastosis virus; details: poly (A).oligo (dT); for ability to substitute for Mg^2+ as added divalent cation: absence of Mg^2+, Be^2+ up to 15 mM
Description: All known DNA polymerases require either Mg^2+ or Mn^2+ as an added divalent cation for activity. AMV DNA polymerase used Mg^2+ as an added divalent cation and the maximum rate of polymerization with poly (A).oligo (dT) was attained at 5 mM Mg^2+. […] Thymidine monophosphate incorporation with Be^2+ was less than 0.3% of that obtained with 5 mM Mg^2+.

[5] = Table 1, template poly [d(A-T)], classes 1-3 not defined
[6] = 2 mM added cation + Mg^2+ 5 mM, poly (A).oligo (dT)
[7] = 2 mM added cation + Mg^2+ 5 mM, poly (A).oligo (dT), dCMP/dTMP
[8] = 6 mM added cation + Mg^2+ 5 mM, poly (A).oligo (dT)
[9] = 10 mM added cation + Mg^2+ 5 mM, poly (A).oligo (dT)
[10] = Table 1, template poly (A).oligo (dT), classes 1-3 not defined
[11] = 1 mM added cation + Mg^2+ 5 mM, poly (A).oligo (dT)
[12] = 5 mM added cation + Mg^2+ 5 mM, poly (A).oligo (dT)
[13] = 4 mM MgSO4, template in drawing 6
[14] = 6 mM MgSO4, template in drawing 6
[15] = 8 mM MgSO4, template in drawing 6
[16] = 10 mM MgSO4, template in drawing 6
[17] = Mg^2+ 2 mM alone, poly (A).oligo (dT)
[18] = Mg^2+ 5 mM alone, poly (A).oligo (dT)
[19] = Mg^2+ 8 mM alone, poly (A).oligo (dT)
[20] = Mg^2+ 15 mM alone, poly (A).oligo (dT)

CC(=O)O [Ba(C2 H3 O2)2]
Class (AMV DNA polymerase [1]; [5]): 2
Metal Concentration which yielded the largest observed change in error rate (AMV DNA polymerase [1]; template poly [d(A-T)]): 10 mM
fold induction at 1 h [2]: 0.94

[Ba+2].[Cl-].[Cl-] [BaCl2]
Carcinogen or Mutagen [3]: -
ability to substitute for Mg^2+ as added divalent cation (AMV DNA polymerase [4]): unable to substitute for Mg^2+
Complementary Nucleotide (pmoles dTMP) (AMV DNA polymerase [1]; [6]): 240 pmol
Non-Complementary Nucleotide (pmoles dCMP) (AMV DNA polymerase [1]; [6]): 0.42 pmol
Error Frequency (AMV DNA polymerase [1]; [7]): 1/578
Complementary Nucleotide (pmoles dTMP) (AMV DNA polymerase [1]; [8]): 243 pmol
Non-Complementary Nucleotide (pmoles dCMP) (AMV DNA polymerase [1]; [8]): 0.46 pmol
Error Frequency (AMV DNA polymerase [1]; 6 mM added cation + Mg^2+ 5 mM, poly (A).oligo (dT), dCMP/dTMP): 1/528
Complementary Nucleotide (pmoles dTMP) (AMV DNA polymerase [1]; [9]): 317 pmol
Non-Complementary Nucleotide (pmoles dCMP) (AMV DNA polymerase [1]; [9]): 0.61 pmol
Error Frequency (AMV DNA polymerase [1]; 10 mM added cation + Mg^2+ 5 mM, poly (A).oligo (dT), dCMP/dTMP): 1/520
Class (AMV DNA polymerase [1]; [10]): 2
effect on error frequency (in words) (AMV DNA polymerase [1]; poly (A).oligo (dT)): did not affect either the incorporation of the complementary or non-complementary nucleotides
Metal Concentration which yielded the largest observed change in error rate (AMV DNA polymerase [1]; template poly (A).oligo (dT)): 10 mM

[Ca+2].[Cl-].[Cl-] [CaCl2]
Carcinogen or Mutagen [3]: -
ability to substitute for Mg^2+ as added divalent cation (AMV DNA polymerase [4]): unable to substitute for Mg^2+
Complementary Nucleotide (pmoles dTMP) (AMV DNA polymerase [1]; [11]): 704 pmol
Non-Complementary Nucleotide (pmoles dCMP) (AMV DNA polymerase [1]; [11]): 0.70 pmol
Error Frequency (AMV DNA polymerase [1]; 1 mM added cation + Mg^2+ 5 mM, poly (A).oligo (dT), dCMP/dTMP): 1/1005
Complementary Nucleotide (pmoles dTMP) (AMV DNA polymerase [1]; [6]): 129 pmol
Non-Complementary Nucleotide (pmoles dCMP) (AMV DNA polymerase [1]; [6]): 0.19 pmol
Error Frequency (AMV DNA polymerase [1]; [7]): 1/681
Complementary Nucleotide (pmoles dTMP) (AMV DNA polymerase [1]; [12]): 55 pmol
Non-Complementary Nucleotide (pmoles dCMP) (AMV DNA polymerase [1]; [12]): 0.083 pmol
Error Frequency (AMV DNA polymerase [1]; 5 mM added cation + Mg^2+ 5 mM, poly (A).oligo (dT), dCMP/dTMP): 1/665
Class (AMV DNA polymerase [1]; [10]): 2
effect on error frequency (in words) (AMV DNA polymerase [1]; poly (A).oligo (dT)): did not alter the error frequency
Metal Concentration which yielded the largest observed change in error rate (AMV DNA polymerase [1]; template poly (A).oligo (dT)): 5 mM

O=P([O-])(O)O.[K+] [KH2 PO4]
Carcinogen or Mutagen [3]: -
Class (AMV DNA polymerase [1]; [5]): 2
Metal Concentration which yielded the largest observed change in error rate (AMV DNA polymerase [1]; template poly [d(A-T)]): 80 mM

O=S(=O)([O-])[O-].[Mg+2] [MgSO4]
Carcinogen or Mutagen [3]: -
Complementary Deoxynucleotide Incorporation (AMV DNA polymerase [1]; [13]): 299 pmol
Error Frequency (AMV DNA polymerase [1]; [13]): 1/598
Non-complementary Deoxynucleotide Incorporation (AMV DNA polymerase [1]; [13]): 0.50 pmol
Complementary Deoxynucleotide Incorporation (AMV DNA polymerase [1]; [14]): 398 pmol
Error Frequency (AMV DNA polymerase [1]; [14]): 1/632
Non-complementary Deoxynucleotide Incorporation (AMV DNA polymerase [1]; [14]): 0.63 pmol
Complementary Deoxynucleotide Incorporation (AMV DNA polymerase [1]; [15]): 349 pmol
Error Frequency (AMV DNA polymerase [1]; [15]): 1/635
Non-complementary Deoxynucleotide Incorporation (AMV DNA polymerase [1]; [15]): 0.55 pmol
Complementary Deoxynucleotide Incorporation (AMV DNA polymerase [1]; [16]): 360 pmol
Error Frequency (AMV DNA polymerase [1]; [16]): 1/621
Non-complementary Deoxynucleotide Incorporation (AMV DNA polymerase [1]; [16]): 0.58 pmol
Class (AMV DNA polymerase [1]; Table 1, template poly (C).oligo (dG), classes 1-3 not defined): 3
Class (AMV DNA polymerase [1]; Table 2, classes not defined): 3
Metal Concentration which yielded the largest observed change in error rate (AMV DNA polymerase [1]; template poly (C).oligo (dG)): 10 mM

[Cl-].[Cl-].[Mg+2] [Mg^2+, magnesium chloride]
Mg^2+ concentration at which the maximum rate of polymerization was attained (AMV DNA polymerase [4]): 5 mM
Complementary Nucleotide (pmoles dTMP) (AMV DNA polymerase [1]; [17]): 320 pmol
Non-Complementary Nucleotide (pmoles dCMP) (AMV DNA polymerase [1]; [17]): 0.56 pmol
Error Frequency (AMV DNA polymerase [1]; Mg^2+ 2 mM alone, poly (A).oligo (dT), dCMP/dTMP): 1/571
Complementary Nucleotide (pmoles dTMP) (AMV DNA polymerase [1]; [18]): 600 pmol
Non-Complementary Nucleotide (pmoles dCMP) (AMV DNA polymerase [1]; [18]): 1.16 pmol
Error Frequency (AMV DNA polymerase [1]; Mg^2+ 5 mM alone, poly (A).oligo (dT), dCMP/dTMP): 1/517
Complementary Nucleotide (pmoles dTMP) (AMV DNA polymerase [1]; [19]): 520 pmol
Non-Complementary Nucleotide (pmoles dCMP) (AMV DNA polymerase [1]; [19]): 1.00 pmol
Error Frequency (AMV DNA polymerase [1]; Mg^2+ 8 mM alone, poly (A).oligo (dT), dCMP/dTMP): 1/520
Complementary Nucleotide (pmoles dTMP) (AMV DNA polymerase [1]; [20]): 240 pmol
Non-Complementary Nucleotide (pmoles dCMP) (AMV DNA polymerase [1]; [20]): 0.90 pmol
Error Frequency (AMV DNA polymerase [1]; Mg^2+ 15 mM alone, poly (A).oligo (dT), dCMP/dTMP): 1/600
effect on error frequency (in words) (AMV DNA polymerase [1]; poly (A).oligo (dT)): invariant with respect to Mg^2+ concentration

O=CO [NH4 COOH]
Class (AMV DNA polymerase [1]; [5]): 2
Metal Concentration which yielded the largest observed change in error rate (AMV DNA polymerase [1]; template poly [d(A-T)]): 100 mM
fold induction at 1 h [2]: 0.83
